Common to all, as to assay: P450-Glo screening system, CYP inhibition
What all share (format): biochemical

The target of data set [1] is T1, CYP2C19 (Homo sapiens, UniProt P33261).
T1 construct: purchased Promega
The following applies: recombinant human CYP, luciferin-H EGE. From the text:
(§1) The P450-Glo™ screening systems (Promega; Madison, Wisconsin, USA) were used in this study to explore the inhibitory properties of MDP on the major CYP isoforms involved in xenobiotic metabolism (CYP1A2, CYP2C9, CYP2C19, CYP2D6, and CYP3A4). HepaRG cells were not utilized in this assay to avoid potential cross reactivity since all CYP enzymes are expressed in this cell line. Therefore, this inhibition study relied on recombinant human CYP enzymes integrated in membrane preparation. The principle of the assay is based on the conversion of a luminogenic substrate (100 µM luciferin-ME for CYP1A2, 100 µM luciferin-H for CYP2C9, 50 µM luciferin-H EGE for CYP2C19, 30 µM luciferin-ME EGE for CYP2D6, and 100 µM luciferin-PPXE for CYP3A4) to luciferin by the respective enzyme. The assay was conducted according to the instructions of the supplier. Briefly, eight non-cytotoxic concentrations of MDP or a CYP selective inhibitor were preincubated for 10 min at 37 °C together with the luminogenic substrate, potassium phosphate buffer, and luciferin-free water, and the test compounds were added to white 96-well Costar® plates. After the preincubation, 25 µL of NADPH regeneration system (2.6 mM NADP + , 6.6 mM glucose-6-phosphate, 6.6 mM MgCl2, and 0.8 U/mL glucose-6-phosphate dehydrogenase) was added to each well to initiate CYP reactions. The plates were briefly shaken and taped before they were incubated at 37 °C for 10–30 min depending on the CYP enzyme under investigation. Luminescence of the luciferin product was initiated by adding 50 µL of the luciferin detection reagent. Subsequently, the plates were briefly shaken and then incubated for 20 min at room temperature in order to stabilize the luminescent signal. The luminescence was measured on the Infinite M200 PRO plate reader (Tecan; Männedorf, Switzerland). The measurements were corrected by subtracting the minus P450 control signals from each measurement and represented as changes in luminescence signals (ΔRLU). The ΔRLU values of MDP were compared with the ΔRLU values of the untreated samples and represented as relative changes in luminescence in relation to the control (%). Three independent experiments with three technical replicates were conducted (n = 3). Means and standard deviations for each treatment were calculated before calculating the IC50 values of MDP for each CYP enzyme.
(§2) A linear mixed-effects ANOVA (α = 0.05) described by Pinheiro and Bates ([2000]) followed by a post-hoc Dunnett test for multiple comparisons of treatment groups versus the control was used for statistical analysis of data from cytotoxicity assay, AdipoRed assay, CYP450 inhibition assay as well as mixture effects. R studio (ver. 4.4.1) was used to determine the effective concentration at relative triglyceride induction fold of 1.5 for each test compound.

Data set [2] concerns the target T2, CYP3A4 (Homo sapiens, UniProt P08684).
T2 construct: purchased Promega
As to conditions: recombinant human CYP, luciferin-PPXE.
Text: as §1, §2

The target of data set [3] is T3, CYP2C9 (Homo sapiens, UniProt P11712).
T3 construct: purchased Promega
As to conditions: recombinant human CYP, luciferin-H.
Text: as §1, §2

Data set [4] concerns the target T4, CYP2D6 (Homo sapiens, UniProt P10635).
T4 construct: purchased Promega
The following applies: recombinant human CYP, luciferin-ME EGE.
Text: as §1, §2

Data set [5] has as its target T5, CYP1A2 (Homo sapiens, UniProt P05177).
T5 construct: purchased Promega
T5 sequence (P05177 1-516): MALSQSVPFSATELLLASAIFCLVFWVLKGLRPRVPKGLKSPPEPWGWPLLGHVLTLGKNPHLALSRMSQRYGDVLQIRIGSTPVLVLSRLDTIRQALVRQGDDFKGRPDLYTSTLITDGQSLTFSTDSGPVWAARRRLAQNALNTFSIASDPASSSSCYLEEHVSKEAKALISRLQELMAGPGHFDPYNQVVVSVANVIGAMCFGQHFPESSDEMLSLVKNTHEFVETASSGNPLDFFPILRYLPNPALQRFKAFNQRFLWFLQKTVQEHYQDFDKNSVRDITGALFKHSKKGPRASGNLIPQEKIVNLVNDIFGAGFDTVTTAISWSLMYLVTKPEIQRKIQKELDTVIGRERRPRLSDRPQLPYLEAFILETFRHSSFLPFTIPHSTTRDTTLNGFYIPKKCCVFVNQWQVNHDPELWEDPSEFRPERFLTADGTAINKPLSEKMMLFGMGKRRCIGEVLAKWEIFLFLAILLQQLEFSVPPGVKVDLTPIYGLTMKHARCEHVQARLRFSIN
The following applies: recombinant human CYP, luciferin-ME.
Text: as §1, §2

T1 sequence (P33261 whole entry): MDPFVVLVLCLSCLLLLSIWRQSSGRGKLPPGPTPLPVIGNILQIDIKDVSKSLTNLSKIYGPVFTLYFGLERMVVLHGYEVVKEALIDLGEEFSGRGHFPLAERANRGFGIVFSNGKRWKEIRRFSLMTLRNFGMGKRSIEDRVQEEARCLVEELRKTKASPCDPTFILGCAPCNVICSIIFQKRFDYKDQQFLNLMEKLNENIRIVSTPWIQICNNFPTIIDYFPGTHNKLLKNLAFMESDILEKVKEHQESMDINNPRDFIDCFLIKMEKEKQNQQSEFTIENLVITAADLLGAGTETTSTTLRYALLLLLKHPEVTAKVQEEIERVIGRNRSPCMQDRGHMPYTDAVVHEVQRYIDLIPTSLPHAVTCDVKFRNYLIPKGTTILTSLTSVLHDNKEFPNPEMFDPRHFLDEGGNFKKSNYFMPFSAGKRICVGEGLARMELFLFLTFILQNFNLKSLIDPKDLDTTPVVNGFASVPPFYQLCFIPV
T3 sequence (P11712 whole entry): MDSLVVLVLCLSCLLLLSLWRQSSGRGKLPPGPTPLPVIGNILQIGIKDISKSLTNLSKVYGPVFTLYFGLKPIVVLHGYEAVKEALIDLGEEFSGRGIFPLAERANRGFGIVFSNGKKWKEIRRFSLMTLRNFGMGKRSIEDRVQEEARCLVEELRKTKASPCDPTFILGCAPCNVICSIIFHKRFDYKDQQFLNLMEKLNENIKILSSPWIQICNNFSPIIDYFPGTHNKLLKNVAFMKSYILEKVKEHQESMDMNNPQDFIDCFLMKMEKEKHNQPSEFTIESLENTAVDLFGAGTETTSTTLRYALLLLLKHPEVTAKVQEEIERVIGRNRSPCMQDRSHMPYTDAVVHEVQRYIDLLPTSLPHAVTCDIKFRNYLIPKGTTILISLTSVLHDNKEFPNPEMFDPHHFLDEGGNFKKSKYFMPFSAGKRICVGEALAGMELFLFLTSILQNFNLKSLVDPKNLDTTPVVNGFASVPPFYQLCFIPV
T2 sequence (P08684 whole entry): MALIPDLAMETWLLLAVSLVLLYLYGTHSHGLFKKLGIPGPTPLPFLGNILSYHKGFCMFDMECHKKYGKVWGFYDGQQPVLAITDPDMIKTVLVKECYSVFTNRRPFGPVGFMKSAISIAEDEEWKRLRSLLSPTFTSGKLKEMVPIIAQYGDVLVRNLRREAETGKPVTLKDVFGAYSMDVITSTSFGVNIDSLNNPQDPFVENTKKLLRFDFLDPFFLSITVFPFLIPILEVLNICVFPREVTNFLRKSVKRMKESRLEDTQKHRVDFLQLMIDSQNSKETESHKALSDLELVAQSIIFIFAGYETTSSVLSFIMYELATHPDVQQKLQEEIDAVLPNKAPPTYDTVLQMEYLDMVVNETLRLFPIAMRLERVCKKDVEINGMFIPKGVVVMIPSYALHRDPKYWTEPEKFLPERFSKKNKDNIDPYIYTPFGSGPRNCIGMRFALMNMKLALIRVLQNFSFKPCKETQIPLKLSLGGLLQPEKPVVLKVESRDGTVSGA
T4 sequence (P10635 whole entry): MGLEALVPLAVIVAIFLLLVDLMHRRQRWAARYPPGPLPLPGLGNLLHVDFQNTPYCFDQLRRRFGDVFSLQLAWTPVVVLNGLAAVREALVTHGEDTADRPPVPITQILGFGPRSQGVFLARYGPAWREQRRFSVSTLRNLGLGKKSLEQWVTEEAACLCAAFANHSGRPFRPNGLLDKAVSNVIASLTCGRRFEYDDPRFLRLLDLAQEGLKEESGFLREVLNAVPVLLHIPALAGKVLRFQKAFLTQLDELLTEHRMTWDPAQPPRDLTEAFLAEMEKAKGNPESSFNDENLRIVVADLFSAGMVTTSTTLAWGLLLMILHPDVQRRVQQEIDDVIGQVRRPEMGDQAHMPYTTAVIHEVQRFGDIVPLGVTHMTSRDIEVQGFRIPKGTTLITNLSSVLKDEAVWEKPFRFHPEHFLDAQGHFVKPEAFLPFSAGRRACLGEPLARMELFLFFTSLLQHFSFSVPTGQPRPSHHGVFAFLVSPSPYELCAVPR

Broadly, the IC50 is the concentration needed to halve the response being measured. For `C#CCOc1ccc(CCNC(=O)C(OCC#C)c2ccc(Cl)cc2)cc1OC` (stereo not shown) [MDP, mandipropamid], in data set [1], the half-inhibitory concentration (IC50) was 824 nM and the “IC50 CYP2C19” value was determined as 0.340 µg/mL. Moreover, in data set [2], the half-maximal inhibitory concentration (IC50) came to 1320 nM and the “IC50 CYP3A4” value stood at 0.544 µg/mL. For the same compound, in data set [3], the half-maximal inhibitory concentration (IC50) turned out to be 1180 nM and the “IC50 CYP2C9” value was 0.488 µg/mL. In data set [4], the concentration for half-maximal inhibition (IC50) amounted to 18100 nM and the “IC50 CYP2D6” value amounted to 7.47 µg/mL. Moreover, in data set [5], the concentration for half-maximal inhibition (IC50) was found to be 28700 nM and the “IC50 CYP1A2” value came out at 11.8 µg/mL.

The record behind these values is article PMC12367838, “Relevance of kinetic interactions and co-formulants for plant protection product liver toxicity in vitro” (Archives of Toxicology, 2025).
